# Measurements from patent publication US4444753A, “Pharmaceutical composition comprising extract from poison pouch contents of bee” (priority 1979, dated 1984).
# Legend:
# [1] = tested on: Ehrlich's ascites cancerous cells; test: Enhancement of carcinostatic activity of Carboquan or Adriamycin to Ehrlich's ascites cancer cells (Table 10); type: in vivo, mouse (ICR-strain); details: 1×10^5 cells, B-TL 1/10 none or 0.25 ml × 7 s.c.
# Protocol: (2) Ehrlich's ascites cancerous cells were inoculated intraperitoneally into ICR-strain mice male, 6 weeks old) in an amount of 1×10^5 cells per mouse. B-TL 1/10 was administered subcutaneously at the back at a dose of 0.25 ml per mouse once a day repeatedly from the day of inoculation for 7 days in total. On the day following the inoculation of the cancerous cells, 0.25 mg/kg of Carboquan (CQ) or 5 mg/kg of Adriamycin (AM) was administered intraperitoneally.
# [2] = tested on: B-16 melanoma cancerous cells; test: Enhancement of carcinostatic activity of Adriamycin to B-16 melanoma cancerous cells (Table 12); type: in vivo, mouse (BDF1-strain); details: 0.2 g cells i.p.; AM 2 mg/kg i.p., B-TL 1/10 none or 0.25 ml × 7 s.c.
# Protocol: Fifteen grams of B-16 melanoma cell cluster was milled by means of a mesh, and then suspended in 15 ml of a physiological salt solution, after which the resulting suspension was transplanted intraperitoneally in BDF1 -strain mice (male, 6 weeks old) in an amount of 0.2 ml per mouse (i.e., 0.2 g of the cells were transplanted per mouse). B-TL 1/10 was administered subcutaneously at the back at a dose of 0.25 ml per mouse once a day for 7 days from the day of transplantation. Adriamycin (AM) was administered intraperitoneally once at a dose of 2 mg/kg on the day following the day of cancer transplantation.
# Escherichia coli TK-16 [3] = test: Infection-controlling effect at a low immunity (cyclophosphamide-treated mice, Table 16); type: in vivo, Escherichia coli; ICR-strain mice; details: for Number of survivors: 15 mice, cyclophosphamide 100 mg/kg, 7th day
# Protocol: Cyclophosphamide was administered intraperitoneally into a group of fifteen ICR-strain mice (male, 4 weeks old) at a dose of 100 mg/kg. On the next day, B-TL 1/10 was administered subcutaneously at the back at a dose of 0.25 ml per mouse once a day repeatedly for 4 days, and a physiological salt solution was administered to the contorl group in the same manner as described above. On the day following the administration of B-TL 1/10, Escherichia coli TK-16 was administered intraperitoneally, and the numbers of the survivors on the 7th day after the inoculation of the bacteria were observed.
# L-1210 leukemia cells [4] = test: Enhancement of carcinostatic activity of Arabinofuranocylcytocine to L-1210 leukemia cells (Table 6); type: in vivo, mouse (BDF1-strain); details: 1×10^3 cells; Ara-C 30 mg/kg × 5 i.p., B-TL 1/10 none or 0.25 ml × 7 s.c.
# Protocol: (3) L-1210 leukemia cells were inoculated intraperitoneally into BDF1 -strain mice (male, 6 to 7 weeks old) in an amount of 1×10^3 cells per mouse, and B-TL 1/10 was administered subcutaneously at the back at a dose of 0.25 ml per mouse once a day repeatedly from the day of inoculation for 7 days in total. Arabinofuranocylcytocine (Ara-C) was administered intraperitoneally at a dose of 30 mg/kg once a day from the day following the inoculation of the cancerous cells for 5 days in total.
# L-1210 leukemia cells [5] = test: Enhancement of carcinostatic activity of Mitomycin C to L-1210 leukemia cells (Table 4); type: in vivo, mouse (BDF1-strain); details: for Number of survivors/Number of tested mice (on the 38th day) / T/C (%): MMC 4 mg/kg i.p., B-TL 1/10 none or 0.25 ml × 7 s.c.
# Protocol: (§1) (1) L-1210 leukemia cells were inoculated intraperitoneally into BDF1 -strain mice (male, 6 to 7 weeks old) in an amount of 1×10^3, 1×10^4 or 1×10^5 cells per mouse, B-TL 1/10 was administered subcutaneously at the back at a dose of 0.25 ml per mouse once a day repeatedly from the day of inoculation for 7 days in total. Mitomycin C (MMC) was administered intraperitoneally at a dose of 4 mg/kg on the first day after the inoculation of the cancerous cells.
# L-1210 leukemia cells [6] = test: Enhancement of carcinostatic activity of Mitomycin C to L-1210 leukemia cells, divided B-TL 1/10 dosing (Table 5); type: in vivo, mouse (BDF1-strain); details: MMC 4 mg/kg
# Protocol: as §1
# (2) In the same manner as in (1), L-1210 leukemia cells were inoculated and MMC and the B-T were administered. B-TL 1/10 was administered subcutaneously at the back, […], and once on the third, 4th, 5th and 6th days after the inoculation.
# L-1210 leukemia cells [7] = test: Enhancement of carcinostatic activity of Mitomycin C to subcutaneous L-1210 tuberous tumor (Table 7); type: in vivo, mouse (BDF1-strain)
# Protocol: (4) L-1210 leukemia cells were inoculated subcutaneously at the armpit of BDF1 -strain mice (male, 7 weeks old) in an amount of 1×10^6 cells per mouse to form a tuberous tumor. B-TL 1/10 was administered subcutaneously at the back at a dose of 0.25 ml per mouse once a day repeatedly from the first day after the inoculation of the cancerous cells for 7 days in total, and Mitomycin C was administered into the tumor at a dose of 4 mg/kg on the first day after the inoculation of the cancerous cells.
# P-388 leukemia cells = test: Enhancement of carcinostatic activity of Mitomycin C to P-388 leukemia cells (Table 8); type: in vivo, mouse (BDF1-strain); details: 1×10^3 cells; MMC 0.5 mg/kg i.p., B-TL 1/10 none or 0.25 ml × 7 s.c.
# Protocol: P-388 leukemia cells were inoculated intraperitoneally into BDF1 -strain mice (male, 7 weeks old) in an amount of 1×10^3 cells per mouse, and B-TL 1/10 was administered subcutaneously at the back at a dose of 0.25 ml per mouse on the day of inoculation and thereafter administered subcutaneously at the back at the same dose once a day repeatedly for 7 days. Mitomycin C (MMC) was administered intraperitoneally at a dose of 0.5 mg/kg on the first day after the inoculation of the P-388 leukemia cells.
# [8] = tested on: Ehrlich's ascites cancer cells; test: Enhancement of carcinostatic activity of Mitomycin C to Ehrlich's ascites cancer cells (Table 9); type: in vivo, mouse (ICR-strain); details: 1×10^5 cells; MMC 0.5 mg/kg i.p.
# Protocol: (1) Ehrlich's ascites cancer cells were inoculated intraperitoneally into ICR-strain mice (female, 6 weeks old) in an amount of 1×10^5 cells per mouse, and B-TL 1/10 was administered subcutaneously at the back at a dose of 0.25 ml per mouse once a day repeatedly from the third day after the inoculation of the cancerous cells for 7 days in total. Mitomycin C (MMC) was administered intraperitoneally at a dose of 0.5 mg/kg on the first day after the inoculation of the cancerous cells.
# [9] = tested on: Ehrlich's ascites cancerous cells; test: Enhancement of carcinostatic activity of Mitomycin C to Ehrlich's ascites cancer cells, B-TL 1/10 pretreatment (Table 11); type: in vivo, mouse (ICR-strain); details: 1×10^5 cells, B-TL 1/10 none or 0.25 ml × 8 s.c.
# Protocol: (3) B-TL 1/10 was administered subcutaneously at the back of ICR-strain mice (male, 5 weeks old) at a dose of 0.25 ml per mouse once a day repeatedly for 8 days in total, and on the day following the eighth administration, 1×10^5 Ehrlich's ascites cancerous cells were inoculated intraperitoneally. On the day following the inoculation of the cancerous cells, Mitomycin C (MMC) was administered intraperitoneally at a dose of 0.5 mg/kg or 1 mg/kg.
# Escherichia coli TK-16 [10] = test: Antibacterial activity-enhancing effect with Piperacillin in Escherichia coli infection (Table 17); type: in vivo, Escherichia coli; ICR-strain mice; details: for Number of survivors: 2×10^7 cells/mouse, 5 mice, 7th day
# Protocol: Escherichia coli TK-16 was administered intraperitoneally into a group of five ICR-strain mice (male, 4 weeks old) in an amount of 2×10^7 cells/mouse, and after one hour, Piperacillin was administered once subcutaneously at the back. B-TL 1/5 was administered subcutaneously at the back at a dose of 0.25 ml per mouse once a day on the 7th, 6th and 5th days before the inoculation of the bacteria, and B-TL 1/10 at a dose of 0.25 ml per mouse once a day on the second and first days before the inoculation of the bacteria. A physiological salt solution was administered to the control group in the same manner as above, and the numbers of the survivors on the 7th day after the inoculation of the bacteria were observed.
# [11] = 1×10^6 cells s.c., MMC 4 mg/kg into the tumor, B-TL 1/10 none or 0.25 ml × 7 s.c.
smiles,measurement,setting,value
"COc1cccc2c1C(=O)c1c(O)c3c(c(O)c1C2=O)C[C@@](O)(C(=O)CO)C[C@@H]3O[C@H]1C[C@H](N)[C@H](O)[C@H](C)O1 [AM, Adriamycin]",Number of survivors/Number of tested mice (on the 40th day),[1]; AM 5 mg/kg i.p.,2/4
same,T/C (%),[1]; AM 5 mg/kg i.p.,175%
same,Number of survivors/Number of tested mice (on the 35th day),[2],1/4
same,T/C (%),[2],182%
"O=P1(N(CCCl)CCCl)NCCCO1 (centres unmarked) [cyclophosphamide, Cyclophosphamide]",Number of survivors,Escherichia coli TK-16 [3]; 1.0 × 10^6 cells/mouse,3
same,Number of survivors,Escherichia coli TK-16 [3]; 2.0 × 10^5 cells/mouse,10
same,Number of survivors,Escherichia coli TK-16 [3]; 3.0 × 10^5 cells/mouse,10
same,Number of survivors,Escherichia coli TK-16 [3]; 4.0 × 10^5 cells/mouse,6
same,Number of survivors,Escherichia coli TK-16 [3]; 8.0 × 10^5 cells/mouse,4
same,LD50 versus control (in words),Escherichia coli TK-16 [3]; Table 16,significantly lower
same,LD50 (of bacteria),"Escherichia coli TK-16 [3]; cyclophosphamide 100 mg/kg i.p., without or with B-TL 1/10 0.25 ml s.c. × 4 days",2.7 × 10^5 cells/mouse
same,infection-controlling effect (in words),Escherichia coli TK-16 [3]; mice given cyclophosphamide,the inhibition of the infection-controlling effect was confirmed
"Nc1ccn([C@@H]2O[C@H](CO)[C@@H](O)[C@@H]2O)c(=O)n1 [Ara-C, Arabinofuranocylcytocine]",Number of survivors/Number of tested mice (on the 30th day),L-1210 leukemia cells [4],0/4
same,T/C (%),L-1210 leukemia cells [4],152%
"CO[C@@]12[C@H](COC(N)=O)C3=C(C(=O)C(C)=C(N)C3=O)N1C[C@@H]1N[C@@H]12 [MMC, Mitomycin C]",Number of survivors/Number of tested mice (on the 38th day),L-1210 leukemia cells [5]; 1 × 10^3 cells/mouse,4/13
same,T/C (%),L-1210 leukemia cells [5]; 1 × 10^3 cells/mouse,192%
same,life-prolonging effect (in words),"L-1210 leukemia cells [5]; 1×10^3 cells, same tendency at 1×10^4 and 1×10^5",a life-prolonging effect was observed
same,Number of survivors/Number of tested mice (on the 38th day),L-1210 leukemia cells [5]; 1 × 10^4 cells/mouse,2/9
same,T/C (%),L-1210 leukemia cells [5]; 1 × 10^4 cells/mouse,188%
same,Number of survivors/Number of tested mice (on the 38th day),L-1210 leukemia cells [5]; 1 × 10^5 cells/mouse,0/4
same,T/C (%),L-1210 leukemia cells [5]; 1 × 10^5 cells/mouse,136%
same,Number of survivors/Number of tested mice (on the 40th day),L-1210 leukemia cells [6]; 1 × 10^3 cells/mouse,1/4
same,T/C (%),L-1210 leukemia cells [6]; 1 × 10^3 cells/mouse,187%
same,Number of survivors/Number of tested mice (on the 40th day),L-1210 leukemia cells [6]; 1 × 10^4 cells/mouse,1/4
same,T/C (%),L-1210 leukemia cells [6]; 1 × 10^4 cells/mouse,202%
same,Number of survivors/Number of tested mice (on the 40th day),L-1210 leukemia cells [6]; 1 × 10^5 cells/mouse,0/4
same,T/C (%),L-1210 leukemia cells [6]; 1 × 10^5 cells/mouse,136%
same,Number of survivors/Number of tested mice (on the 30th day),L-1210 leukemia cells [7]; [11],4/5
same,T/C (%),L-1210 leukemia cells [7]; [11],304%
same,"Weight of tumor, Ratio to Control",L-1210 leukemia cells [7]; 30th day versus control measured on 8-10th day (control = 100),156
same,Weight of tumor,"L-1210 leukemia cells [7]; on the 30th day, 4 survivors among 5, MMC 4 mg/kg, B-TL 1/10 none or 0.25 ml × 7",808 ± 461 mg
same,Number of survivors/Number of tested mice (on the 41st day),P-388 leukemia cells,0/3
same,T/C (%),P-388 leukemia cells,101%
same,Number of survivors/Number of tested mice (on the 40th day),[8],1/10
same,T/C (%),[8],158%
same,Number of survivors/Number of tested mice (on the 40th day),[9]; MMC 0.5 mg/kg i.p.,1/5
same,T/C (%),[9]; MMC 0.5 mg/kg i.p.,157%
same,Number of survivors/Number of tested mice (on the 40th day),[9]; MMC 1 mg/kg i.p.,0/5
same,T/C (%),[9]; MMC 1 mg/kg i.p.,172%
CCN1CCN(C(=O)N[C@@H](C(=O)N[C@@H]2C(=O)N3[C@@H]2SC(C)(C)[C@@H]3C(=O)O)c2ccccc2)C(=O)C1=O [Piperacillin],Number of survivors,Escherichia coli TK-16 [10]; Piperacillin 0.156 mg/mouse s.c.,0
same,Number of survivors,Escherichia coli TK-16 [10]; Piperacillin 0.313 mg/mouse s.c.,0
same,Number of survivors,Escherichia coli TK-16 [10]; Piperacillin 0.625 mg/mouse s.c.,1
same,Number of survivors,Escherichia coli TK-16 [10]; Piperacillin 1.25 mg/mouse s.c.,0
same,Number of survivors,Escherichia coli TK-16 [10]; Piperacillin 2.5 mg/mouse s.c.,2
same,ED50,"Escherichia coli TK-16 [10]; Piperacillin dose, without or with B-TL 1/5 then B-TL 1/10 pretreatment",3.54 mg/mouse
"COC(COC(N)=O)C1=C(N2CC2)C(=O)C(C)=C(N2CC2)C1=O (racemic) [CQ, Carboquan]",Number of survivors/Number of tested mice (on the 40th day),[1]; CQ 0.25 mg/kg i.p.,0/4
same,T/C (%),[1]; CQ 0.25 mg/kg i.p.,138%
